The values that follow are results of earlier work, collected in patent publication US10813882B1, “In situ gelling formulation for reduced initial drug burst” (King Abdulaziz University, priority 2019, dated 2020).

The conditions of series [1]: in vivo.

Usually bioavailability stands for the share of a dose that reaches the circulation, judged against a reference dose that is usually intravenous. Regarding `CC(C)c1nc(N(C)S(C)(=O)=O)nc(-c2ccc(F)cc2)c1/C=C/[C@@H](O)C[C@@H](O)CC(=O)O` [RSV, Rosuvastatin], in the series on plasma protein, the “bound to plasma protein” value was 88%. In addition, for the setting “DMSO, dimethyl formamide”, the “solubility in organic solvent such as DMSO and DMF” value is given as “soluble”. Moreover, for the setting “ethanol”, the solubility in ethanol result is “marginally soluble”. In addition, in series [1], the bioavailability was 20%, the “effect of food on the amount absorbed” value is given as “does not affect” and the “time to maximum plasma level” value is 3 to 5 h.
